Values quoted from earlier work in patent US20140147496A1, “COMPOSITION AND METHOD FOR FERTILITY THERAPY USING NUTRITIONAL SUPPLEMENTS” (FAIRHAVEN HEALTH, LLC, priority 2009, published 2014).

Key:
infertile patients [1] = conditions: 60 mg, mean 103 days, 17 infertile patients
[2] = tested on: idiopathic asthenozoospermic infertile patients; conditions: after administration
[3] = tested on: Infertile men with idiopathic asthenozoospermia; conditions: oral
infertile patients [4] = conditions: 2 g/day, two month cross-over, excluding outliers
[5] = tested on: patients with idiopathic asthenospermia; conditions: 3 g/d
[6] = tested on: patients with idiopathic asthenospermia; conditions: between baseline, 12 week, or 24 weeks
[7] = tested on: Patients with inflammatory abacterial prostatovesiculoepididymitis (PVE); conditions: following a 3-month washout period

For `COC1=C(OC)C(=O)C(C/C=C(\C)CC/C=C(\C)CC/C=C(\C)CC/C=C(\C)CC/C=C(\C)CC/C=C(\C)CC/C=C(\C)CC/C=C(\C)CC/C=C(\C)CCC=C(C)C)=C(C)C1=O` [Coenzyme Q10], the motility after incubation (sperm samples; samples with initial normal motility, 5 μM or 50 μM, 24 h) is given as “no significant change”, the motility (sperm samples; sperm samples from 22 asthenospermic men, in vitro, 50 μM) is given as “significant increases in motility” and the standard sperm parameters (infertile patients [1]) is given as “no significant changes”. For the same compound, the fertilization rate (infertile patients [1]; p<0.05) was “significant improvement”, the “Coenzyme Q10 in seminal plasma and in sperm cells” value [2] was “significant increase” and the sperm motility [2] was “improvement in sperm motility”. The “Coenzyme Q10 levels in seminal plasma and in sperm cells” value ([3]; after 6 months of therapy) was “increased significantly” and the sperm cell motility ([3]; after 6 months, computer-assisted analysis) was “significant increase”.

In the case of `C[N+](C)(C)C[C@H](O)CC(=O)[O-]` [L-carnitine], the “semen quality over placebo (concentration, total and forward motility)” value (infertile patients [4]) is given as “statistically significant improvement”.

For `CC(=O)O[C@H](CC(=O)[O-])C[N+](C)(C)C` [LAC, L-acetyl-carnitine], the sperm cell motility [5] is given as “increased”.

In the case of `C[N+](C)(C)CC(O)CC(=O)[O-]` (stereo not shown) [carnitine], the “motility or total motile sperm counts” value [6] is given as “no significant differences”, the “production of reactive oxygen species” value [7] is given as “highest reduction” and the “sperm motility and viability” value [7] is given as “increased”.
